Test results reported in US12275731B2, “Azaindole inhibitors of wild-type and mutant forms of LRRK2” (DANA-FARBER CANCER INSTITUTE, INC., priority 2018, dated 2025).

Tests used:
Experiment in all cases: KinomeScan profiling
Assay type in all cases: binding
CLK2 = CLK2 (Homo sapiens, UniProt P49760); details: CLK2, 1 μM; read-out: % control
Method in brief: (§1)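 At 1 μM in DMSO, compounds are run through a broad 468-member kinase panel. The luminescent read-out is normalised so that vehicle gives 100% and a positive control gives 0%; any kinase falling below 35% is treated as a target.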

ALK = molecular target: T1, ALK (Homo sapiens, UniProt Q9UM73); details: read-out: % control
T1 construct: purchased KinomeScan®
Method in brief: as §1

MAP4K2 = molecular target: T2, MAP4K2 (Homo sapiens, UniProt Q12851); details: MAP4K2, 1 μM; read-out: % control
T2 sequence (Q12851 1-820): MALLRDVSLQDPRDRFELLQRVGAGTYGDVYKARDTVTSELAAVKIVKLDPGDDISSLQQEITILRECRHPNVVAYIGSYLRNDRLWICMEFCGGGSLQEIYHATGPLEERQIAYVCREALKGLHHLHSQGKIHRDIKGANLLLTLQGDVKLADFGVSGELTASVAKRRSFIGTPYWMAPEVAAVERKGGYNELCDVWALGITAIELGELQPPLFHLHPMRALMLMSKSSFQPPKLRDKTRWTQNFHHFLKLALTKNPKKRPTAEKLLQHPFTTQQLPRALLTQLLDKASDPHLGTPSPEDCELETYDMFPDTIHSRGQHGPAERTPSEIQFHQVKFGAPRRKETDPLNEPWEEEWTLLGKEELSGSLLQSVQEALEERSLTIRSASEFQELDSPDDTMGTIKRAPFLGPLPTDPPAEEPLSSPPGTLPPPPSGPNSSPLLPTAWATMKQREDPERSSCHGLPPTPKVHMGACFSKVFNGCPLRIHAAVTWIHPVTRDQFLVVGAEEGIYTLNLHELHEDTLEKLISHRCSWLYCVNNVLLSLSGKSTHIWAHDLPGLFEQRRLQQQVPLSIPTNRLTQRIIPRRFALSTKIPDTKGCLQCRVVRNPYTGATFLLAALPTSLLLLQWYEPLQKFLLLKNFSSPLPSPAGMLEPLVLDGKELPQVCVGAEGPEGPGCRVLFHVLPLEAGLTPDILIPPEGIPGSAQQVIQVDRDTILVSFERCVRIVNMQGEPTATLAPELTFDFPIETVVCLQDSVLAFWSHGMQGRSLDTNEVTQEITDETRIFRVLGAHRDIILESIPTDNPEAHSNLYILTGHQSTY
Method in brief: as §1

NEK4 = NEK4 (Homo sapiens, UniProt P51957); details: NEK4, 1 μM; read-out: % control
Method in brief: as §1

RET(V804M) = RET(V804M) (Homo sapiens, UniProt P07949, V804M); details: read-out: % control
Method in brief: as §1

ROCK1 = ROCK1 (Homo sapiens, UniProt Q13464); details: ROCK1, 1 μM; read-out: % control
Method in brief: as §1

MERTK = molecular target: T3, MERTK (Homo sapiens, UniProt Q12866); details: read-out: % control
T3 sequence (Q12866 21-999): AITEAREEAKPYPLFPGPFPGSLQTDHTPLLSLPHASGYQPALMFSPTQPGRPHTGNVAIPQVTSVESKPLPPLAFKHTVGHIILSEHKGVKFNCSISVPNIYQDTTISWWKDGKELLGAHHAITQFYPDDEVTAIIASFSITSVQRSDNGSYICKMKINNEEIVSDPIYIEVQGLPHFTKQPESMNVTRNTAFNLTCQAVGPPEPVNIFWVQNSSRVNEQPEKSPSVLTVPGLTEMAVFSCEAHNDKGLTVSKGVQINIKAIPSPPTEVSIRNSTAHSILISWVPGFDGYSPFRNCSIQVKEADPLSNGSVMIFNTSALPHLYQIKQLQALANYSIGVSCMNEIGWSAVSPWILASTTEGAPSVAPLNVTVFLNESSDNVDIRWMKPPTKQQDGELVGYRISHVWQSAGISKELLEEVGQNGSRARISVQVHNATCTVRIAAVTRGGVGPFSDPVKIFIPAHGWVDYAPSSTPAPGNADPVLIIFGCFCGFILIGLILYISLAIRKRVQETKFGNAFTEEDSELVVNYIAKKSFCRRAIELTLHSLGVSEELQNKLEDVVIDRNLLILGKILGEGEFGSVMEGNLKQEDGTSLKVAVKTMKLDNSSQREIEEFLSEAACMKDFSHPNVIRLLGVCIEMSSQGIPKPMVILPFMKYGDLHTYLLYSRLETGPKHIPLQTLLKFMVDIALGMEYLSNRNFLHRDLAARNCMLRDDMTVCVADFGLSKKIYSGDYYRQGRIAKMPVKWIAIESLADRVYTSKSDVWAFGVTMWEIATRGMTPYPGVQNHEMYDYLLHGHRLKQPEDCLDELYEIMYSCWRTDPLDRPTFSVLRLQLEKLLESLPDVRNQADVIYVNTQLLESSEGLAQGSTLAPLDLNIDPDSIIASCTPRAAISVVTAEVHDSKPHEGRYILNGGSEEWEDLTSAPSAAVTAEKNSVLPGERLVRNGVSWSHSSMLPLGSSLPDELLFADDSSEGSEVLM
Method in brief: as §1

ACVR1B = molecular target: T4, ACVR1B (Homo sapiens, UniProt P36896); details: read-out: % control
T4 construct: purchased KinomeScan®
T4 sequence (P36896 24-505): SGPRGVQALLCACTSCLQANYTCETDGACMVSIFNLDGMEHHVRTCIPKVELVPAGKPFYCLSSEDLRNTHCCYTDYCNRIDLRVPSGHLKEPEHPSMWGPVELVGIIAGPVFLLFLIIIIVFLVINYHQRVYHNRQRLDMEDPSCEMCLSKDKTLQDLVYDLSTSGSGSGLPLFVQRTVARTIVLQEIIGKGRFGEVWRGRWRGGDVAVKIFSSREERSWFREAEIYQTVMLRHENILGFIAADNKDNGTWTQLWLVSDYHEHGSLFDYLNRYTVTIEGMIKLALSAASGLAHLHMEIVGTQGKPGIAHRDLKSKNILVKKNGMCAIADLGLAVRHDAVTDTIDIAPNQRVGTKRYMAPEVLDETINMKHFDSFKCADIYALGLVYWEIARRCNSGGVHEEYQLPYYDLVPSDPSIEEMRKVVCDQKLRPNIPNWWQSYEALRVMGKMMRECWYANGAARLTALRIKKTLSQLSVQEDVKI
Method in brief: as §1

Chain of CLK2 (P49760 whole entry): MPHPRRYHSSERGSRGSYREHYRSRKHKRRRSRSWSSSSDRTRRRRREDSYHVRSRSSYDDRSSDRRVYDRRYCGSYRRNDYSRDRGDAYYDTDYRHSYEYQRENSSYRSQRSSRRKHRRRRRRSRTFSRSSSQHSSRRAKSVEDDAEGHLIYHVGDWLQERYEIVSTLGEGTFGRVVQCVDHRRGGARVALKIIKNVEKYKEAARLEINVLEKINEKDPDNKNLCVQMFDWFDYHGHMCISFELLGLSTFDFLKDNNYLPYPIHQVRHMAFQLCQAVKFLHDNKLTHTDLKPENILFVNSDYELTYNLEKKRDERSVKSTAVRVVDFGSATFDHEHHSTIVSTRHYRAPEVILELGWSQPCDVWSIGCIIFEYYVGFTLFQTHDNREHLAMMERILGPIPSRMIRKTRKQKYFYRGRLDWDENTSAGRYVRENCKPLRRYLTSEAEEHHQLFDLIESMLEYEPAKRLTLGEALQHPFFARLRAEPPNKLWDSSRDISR
Chain of ROCK1 (Q13464 whole entry): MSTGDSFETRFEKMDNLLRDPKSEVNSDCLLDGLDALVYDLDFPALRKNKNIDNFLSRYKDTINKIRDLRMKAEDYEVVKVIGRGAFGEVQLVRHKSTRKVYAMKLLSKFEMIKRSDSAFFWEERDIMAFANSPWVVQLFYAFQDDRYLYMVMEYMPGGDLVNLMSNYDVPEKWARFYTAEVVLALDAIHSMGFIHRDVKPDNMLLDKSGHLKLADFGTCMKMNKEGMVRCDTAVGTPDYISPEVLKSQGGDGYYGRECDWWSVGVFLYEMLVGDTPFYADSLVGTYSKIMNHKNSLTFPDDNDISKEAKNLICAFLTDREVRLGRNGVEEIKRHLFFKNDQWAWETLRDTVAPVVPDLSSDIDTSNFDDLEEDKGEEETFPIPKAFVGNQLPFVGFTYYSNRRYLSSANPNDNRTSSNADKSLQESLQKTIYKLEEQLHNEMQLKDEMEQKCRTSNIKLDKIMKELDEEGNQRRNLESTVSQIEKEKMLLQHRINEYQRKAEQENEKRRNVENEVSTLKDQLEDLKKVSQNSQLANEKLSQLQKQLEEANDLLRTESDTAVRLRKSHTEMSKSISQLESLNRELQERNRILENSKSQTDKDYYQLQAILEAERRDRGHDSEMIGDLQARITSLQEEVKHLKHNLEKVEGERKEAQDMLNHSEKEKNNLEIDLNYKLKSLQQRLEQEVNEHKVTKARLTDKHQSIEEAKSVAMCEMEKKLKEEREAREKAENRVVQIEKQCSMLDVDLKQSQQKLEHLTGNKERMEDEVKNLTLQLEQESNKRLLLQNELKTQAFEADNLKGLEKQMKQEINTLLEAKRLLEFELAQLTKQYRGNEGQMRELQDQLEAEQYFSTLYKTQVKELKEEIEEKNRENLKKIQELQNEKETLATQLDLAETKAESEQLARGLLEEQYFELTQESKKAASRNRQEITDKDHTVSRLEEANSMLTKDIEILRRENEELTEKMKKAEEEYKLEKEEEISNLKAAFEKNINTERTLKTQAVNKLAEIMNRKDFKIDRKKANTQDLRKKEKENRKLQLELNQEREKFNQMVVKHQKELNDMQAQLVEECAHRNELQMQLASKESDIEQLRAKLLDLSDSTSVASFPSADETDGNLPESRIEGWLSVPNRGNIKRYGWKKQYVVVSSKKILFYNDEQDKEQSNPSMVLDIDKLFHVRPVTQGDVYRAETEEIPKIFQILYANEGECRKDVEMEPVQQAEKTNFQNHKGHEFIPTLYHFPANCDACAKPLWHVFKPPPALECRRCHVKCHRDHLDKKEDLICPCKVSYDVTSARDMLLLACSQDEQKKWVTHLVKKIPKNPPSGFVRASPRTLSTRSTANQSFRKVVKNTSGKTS
Chain of NEK4 (P51957 whole entry): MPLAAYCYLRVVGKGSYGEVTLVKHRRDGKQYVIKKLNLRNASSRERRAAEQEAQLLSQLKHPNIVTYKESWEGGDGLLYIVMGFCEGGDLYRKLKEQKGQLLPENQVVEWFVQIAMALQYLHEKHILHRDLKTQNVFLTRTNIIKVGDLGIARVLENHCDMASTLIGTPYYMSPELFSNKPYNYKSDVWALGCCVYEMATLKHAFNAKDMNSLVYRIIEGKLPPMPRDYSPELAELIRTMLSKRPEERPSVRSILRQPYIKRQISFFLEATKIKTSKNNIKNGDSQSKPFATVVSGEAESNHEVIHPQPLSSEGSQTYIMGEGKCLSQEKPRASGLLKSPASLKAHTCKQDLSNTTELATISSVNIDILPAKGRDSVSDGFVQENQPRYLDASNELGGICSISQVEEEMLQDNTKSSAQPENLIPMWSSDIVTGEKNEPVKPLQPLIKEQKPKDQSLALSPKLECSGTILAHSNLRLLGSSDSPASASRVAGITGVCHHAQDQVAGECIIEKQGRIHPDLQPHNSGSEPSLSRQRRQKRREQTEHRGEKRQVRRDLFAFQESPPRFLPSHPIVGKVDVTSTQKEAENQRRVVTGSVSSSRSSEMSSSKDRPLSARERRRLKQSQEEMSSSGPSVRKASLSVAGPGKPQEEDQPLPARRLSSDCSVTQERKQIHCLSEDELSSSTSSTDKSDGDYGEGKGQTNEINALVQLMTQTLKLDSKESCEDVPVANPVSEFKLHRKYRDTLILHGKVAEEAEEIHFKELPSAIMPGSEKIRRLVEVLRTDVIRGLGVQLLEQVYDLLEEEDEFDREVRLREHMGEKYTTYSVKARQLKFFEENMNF
T1 sequence (Q9UM73 19-1620): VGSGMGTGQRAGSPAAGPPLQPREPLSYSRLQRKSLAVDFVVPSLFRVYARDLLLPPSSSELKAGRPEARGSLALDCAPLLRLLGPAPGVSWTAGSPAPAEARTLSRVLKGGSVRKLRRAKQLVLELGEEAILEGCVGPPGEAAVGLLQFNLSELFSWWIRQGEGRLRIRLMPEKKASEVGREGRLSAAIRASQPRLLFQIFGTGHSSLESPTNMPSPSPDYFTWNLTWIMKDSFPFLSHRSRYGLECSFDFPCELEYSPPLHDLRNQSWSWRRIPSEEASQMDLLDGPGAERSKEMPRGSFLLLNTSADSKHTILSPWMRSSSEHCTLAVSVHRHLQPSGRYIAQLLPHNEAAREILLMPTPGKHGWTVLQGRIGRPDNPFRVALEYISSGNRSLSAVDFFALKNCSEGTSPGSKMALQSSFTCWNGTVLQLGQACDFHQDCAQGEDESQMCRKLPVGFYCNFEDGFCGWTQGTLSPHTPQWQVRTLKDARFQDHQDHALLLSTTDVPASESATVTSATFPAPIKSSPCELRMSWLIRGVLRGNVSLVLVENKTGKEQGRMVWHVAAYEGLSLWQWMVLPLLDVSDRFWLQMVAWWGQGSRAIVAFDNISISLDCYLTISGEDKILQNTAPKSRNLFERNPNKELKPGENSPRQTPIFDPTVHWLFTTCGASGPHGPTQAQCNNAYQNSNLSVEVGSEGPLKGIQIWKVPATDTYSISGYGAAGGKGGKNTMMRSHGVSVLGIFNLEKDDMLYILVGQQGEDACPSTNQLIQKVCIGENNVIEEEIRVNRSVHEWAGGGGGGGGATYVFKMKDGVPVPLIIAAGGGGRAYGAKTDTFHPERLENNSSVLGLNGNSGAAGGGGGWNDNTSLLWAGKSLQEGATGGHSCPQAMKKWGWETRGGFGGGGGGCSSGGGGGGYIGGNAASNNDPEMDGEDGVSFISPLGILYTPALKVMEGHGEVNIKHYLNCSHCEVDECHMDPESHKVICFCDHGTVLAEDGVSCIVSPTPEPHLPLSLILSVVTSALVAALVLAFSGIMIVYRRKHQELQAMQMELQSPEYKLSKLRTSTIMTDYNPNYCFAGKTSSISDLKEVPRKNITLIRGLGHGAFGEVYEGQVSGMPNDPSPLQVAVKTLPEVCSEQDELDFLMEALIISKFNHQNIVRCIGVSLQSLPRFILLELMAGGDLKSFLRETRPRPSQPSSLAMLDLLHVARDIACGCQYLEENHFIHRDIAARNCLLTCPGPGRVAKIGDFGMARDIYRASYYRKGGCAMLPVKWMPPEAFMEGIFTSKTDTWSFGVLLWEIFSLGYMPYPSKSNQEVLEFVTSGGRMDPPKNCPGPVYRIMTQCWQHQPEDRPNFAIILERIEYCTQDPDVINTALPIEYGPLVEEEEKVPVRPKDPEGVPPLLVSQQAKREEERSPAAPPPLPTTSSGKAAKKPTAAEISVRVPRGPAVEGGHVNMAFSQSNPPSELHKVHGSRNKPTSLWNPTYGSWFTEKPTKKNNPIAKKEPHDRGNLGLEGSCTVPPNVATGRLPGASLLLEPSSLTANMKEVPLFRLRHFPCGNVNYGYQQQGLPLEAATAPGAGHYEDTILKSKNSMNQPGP

SMILES | remaining binding at 1 µM (CLK2) | remaining binding at 1 µM (ALK) | remaining binding at 1 µM (MAP4K2) | remaining binding at 1 µM (NEK4) | remaining binding at 1 µM (RET(V804M)) | remaining binding at 1 µM (ROCK1) | remaining binding at 1 µM (MERTK) | remaining binding at 1 µM (ACVR1B)
O=C(c1ccc(-c2cnc3[nH]cc(Cl)c3c2NC2CCCC2)cc1)N1CCC(N2CCOCC2)CC1 [Compound 101, (4-(3-chloro-4-(cyclopentylamino)-1H-pyrrolo[2,3-b]pyridin-5-yl)phenyl)(4-morpholinopiperidin-1-yl)methanone] | 65% | 75% | 20% | 100% | 99% | 63% | 41% | 98%
CNc1c(-c2cnn([C@H]3CCN(C(C)=O)C[C@@H]3F)c2)cnc2[nH]cc(Cl)c12 [Compound 77, 1-((3S,4S)-4-(4-(3-chloro-4-(methylamino)-1H-pyrrolo[2,3-b]pyridin-5-yl)-1H-pyrazol-1-yl)-3-fluoropiperidin-1-yl)ethan-1-one] | 57% | 40% | 20% | 82% | 52% | 20% | 45% | 83%
CNc1c(-c2ccc(C(=O)N3CCC(N4CCOCC4)CC3)cc2)cnc2[nH]cc(Cl)c12 [Compound 96, (4-(3-chloro-4-(methylamino)-1H-pyrrolo[2,3-b]pyridin-5-yl)phenyl)(4-morpholinopiperidin-1-yl)methanone] | 11% | 46% | 1.1% | 65% | 61% | 4.7% | 42% | 74%
